For three compounds, MIC results are on record in ChEMBL document CHEMBL5316284, “Structural Determinants of Indole-2-carboxamides: Identification of Lead Acetamides with Pan Antimycobacterial Activity” (J Med Chem, 2023).

For orientation: MIC means the lowest concentration found to suppress growth.

What all share (assay type): functional
Assay [1] relates to Mycobacterium tuberculosis. Nature of the assay: Antimycobacterial activity against Mycobacterium tuberculosis harbouring wild-type mmpL3 gene assessed as inhibition of bacterial growth by visual analysis.
The subject of assay [2] is Mycobacterium tuberculosis. The experiment in a line: Antimycobacterial activity against Mycobacterium tuberculosis harbouring mmpL3 S309C mutant gene assessed as inhibition of bacterial growth by visual analysis.
Assay [3] deals with Mycobacterium tuberculosis. Nature of the assay: Antimycobacterial activity against Mycobacterium tuberculosis harbouring mmpL3 L189R mutant gene assessed as inhibition of bacterial growth by visual analysis.
The subject of assay [4] is Mycobacterium tuberculosis. Nature of the assay: Antimycobacterial activity against Mycobacterium tuberculosis harbouring mmpL3 G253E mutant gene assessed as inhibition of bacterial growth by visual analysis.
Assay [5] deals with Mycobacterium tuberculosis. The experiment in a line: Antimycobacterial activity against Mycobacterium tuberculosis harbouring mmpL3 S288T mutant gene assessed as inhibition of bacterial growth by visual analysis.
Assay [6] relates to Mycobacterium tuberculosis. Nature of the assay: Antimycobacterial activity against Mycobacterium tuberculosis harbouring mmpL3 L567P mutant gene assessed as inhibition of bacterial growth by visual analysis.
The test system of assay [7] is Mycobacterium tuberculosis. The experiment in a line: Antimycobacterial activity against Mycobacterium tuberculosis harbouring mmpL3 S591l mutant gene assessed as inhibition of bacterial growth by visual analysis.
The test system of assay [8] is Mycobacterium tuberculosis. The experiment in a line: Antimycobacterial activity against Mycobacterium tuberculosis harbouring mmpL3 V684G mutant gene assessed as inhibition of bacterial growth by visual analysis.
Assay [9] has as its system Mycobacterium tuberculosis. The experiment in a line: Antimycobacterial activity against Mycobacterium tuberculosis harbouring mmpL3 V684A mutant gene assessed as inhibition of bacterial growth by visual analysis.
Assay [10] has as its system Mycobacterium tuberculosis. Nature of the assay: Antimycobacterial activity against Mycobacterium tuberculosis harbouring mmpL3 F644C mutant gene assessed as inhibition of bacterial growth by visual analysis.

Values after ≈ are worked out from the molar mass of the structure shown.

Regarding `O=C(CNc1cccc(OC(F)(F)F)c1)NC12CC3CC(CC(C3)C1)C2`, the MIC in [1] turned out to be 0.5 µg/mL (≈ 1.36 µM); in assay [2], 4 µg/mL (≈ 10.9 µM); in assay [3], 2 µg/mL (≈ 5.43 µM); in [4] it was 4 µg/mL (≈ 10.9 µM); in assay [5] it was 8 µg/mL (≈ 21.7 µM); in assay [6], 2 µg/mL (≈ 5.43 µM). In addition, the figures for the MIC in assay [7], in assay [8] and in assay [9] were 4 µg/mL (≈ 10.9 µM), 0.5 µg/mL (≈ 1.36 µM) and 1 µg/mL (≈ 2.71 µM), respectively.

Turning to `C[C@@H]1[C@H]2C[C@@H](C[C@H]1NC(=O)CNc1cccc(Cl)c1)C2(C)C`, the MIC in [1] was 1 µg/mL (≈ 3.12 µM); in assay [2] it was 8 µg/mL (≈ 24.9 µM); in assay [3] it was 4 µg/mL (≈ 12.5 µM); in assay [4], 4 µg/mL (≈ 12.5 µM); in [5] it was 16 µg/mL (≈ 49.9 µM); in assay [6], 2 µg/mL (≈ 6.23 µM). Also, the MIC in assay [7] was 4 µg/mL (≈ 12.5 µM); in assay [10], 4 µg/mL (≈ 12.5 µM); in assay [8], 2 µg/mL (≈ 6.23 µM); in assay [9], 2 µg/mL (≈ 6.23 µM).

For the compound `CC[C@H]1OC(=O)[C@H](C)[C@@H](O[C@H]2C[C@@](C)(OC)[C@@H](O)[C@H](C)O2)[C@H](C)[C@@H](O[C@@H]2O[C@H](C)C[C@H](N(C)C)[C@H]2O)[C@](C)(OC)C[C@@H](C)C(=O)[C@H](C)[C@@H](O)[C@]1(C)O` [CLARITHROMYCIN], the MIC in assay [1], in [2], in [3], in [4], in assay [5] and in assay [6] was 0.5 µg/mL (≈ 0.668 µM) throughout. Moreover, the MIC in [7], in assay [10] and in assay [8] was 0.5 µg/mL (≈ 0.668 µM) each time.
